Results on 25 compounds are retold here after patent publication US11884647B2, “Compounds and methods for targeting pathogenic blood vessels” (THE REGENTS OF THE UNIVERSITY OF CALIFORNIA, priority 2019, dated 2024).

In the first experiment the test system is tumor endothelial cells (LL/2 lung cancer tumor). The experiment is described as follows: Lung LL2 ex vivo model of tumor angiogenesis. The following applies: Lung LL2 ex vivo; Conc. 40 μm; drug treatment two days. The class given is cell-based, mouse. The protocol:
This example describes a procedure to prepare a primary tumor angiogenesis model for assessing the efficacy of anti-cancer candidate agents.
1. The day before the experiment, spray all necessary tools with 70% ethanol and sterilize them under UV light overnight, including blade, dissecting and micro-dissecting scissors and […]. Place 24-well dishes at 4° C. to pre-chill plates and thaw Matrigel 24 hours before tumor dissection.
2. Spray 70% ethanol on working bench. Prepare two sterile petri dishes with 10 mL sterile PBS. Steps 3 and 4 are for mouse tumor models. For fresh human tumor, directly go to step 5.
3. Euthanize the tumor-bearing mice. Spray 70% ethanol on the mouse and remove the tumor using sterilized dissecting tools (avoid the fur). Rinse the tumor in petri dish with sterile PBS to remove ethanol and fur. Transfer the tumor to a new petri dish with PBS for dissection. Place the dish on ice.
4. Using pre-chilled sterile pipet tips to seed regular Matrigel in 24 well plates on ice. Matrigel (30 μL) is dropped in the middle of each well without touching the edge of the well (avoid introducing bubbles if possible).
5. Cut the tumor in halves using the sterile blade. Identify and isolate healthy tumor tissue that is not necrotic and is within the tumor capsule. Cut the healthy tumor tissue into small pieces. For instance, a suitable size for the tumor tissue is 0.5 mm (H)×0.5 mm (L)×0.3 mm (D) with a total volume of 0.075 mm^3.
6. Gently transfer and embed each tumor piece in the Matrigel drop in the 24-well plate. Place the embedded piece in the bottom and middle of each Matrigel drop. Keep the plate on ice all the time.
7. After seeding the tumor pieces, plates are incubated in a 37° C. cell culture incubator without medium for 10 minutes in order for the Matrigel to solidify.
8. Endothelial Growth Medium (0.5 mL) is added to each well and incubated at 37° C. with 5% CO2. Wait until the new endothelial cells have grown out of the tumor or are larger than 3 mm in diameter until treatment. This usually takes 4 days for the LL2 Lewis lung cancer model and 7 days for the CT26 colon cancer model. For human tumor models, the growth time is typically 2-3 weeks, depending on the tumor type. Media is changed every 4 days during prolonged culture. Typically, when the tumor tissue grows to 2 mm in diameter, it is good for drug testing. A size of about 3 mm in diameter can make visualization easier.
9. When the assay is ready to be analyzed for cell death (e.g., 48 hours after drug addition), prepare the dye mixture by mixing 6 μL of green dye to stain live cells (5 mg/mL Fluorescein diacetate or FDA in DMSO) with 30 μL of red dye (2.5 mg/mL Propidium iodide or PI in PBS) to stain dead cells in an Eppendorf tube. The FDA dye needs to be stored frozen in a −20° C. freezer because it has a labile ester bond.
10. Add 1 μL of the dye mixture to each well of the 24-well dish. It is usually performed one 24-well dish at a time given the amount of time needed to take pictures (the green dye is not as stable in the cells in the long term).
11. Gently rock the dish a few times to mix the dye with the media in the wells and incubate the dish at 37° C. for 10 min (too long incubation can make the green signal too intense).
12. Wash each well with 0.5 mL of sterile PBS and then add 0.5 mL of phenol red free SFM to each well. Alternatively 0.5 mL of regular Endothelial Cell Growth Media can be added to each well if this well needs to be continuously maintained after the experiment.
13. Look through all wells on an inverted microscope using the 2× objective lens to observe morphological changes.
14. Taking pictures in the red and green channels would allow not only the recording of the result but also more accurate quantitation of the result. To take pictures for all the wells, first pick a well that has robust red and green signals. […]
`CCCCOc1ccc(S(=O)(=O)c2cnc3ccc(C(=O)NC4C(O)O[C@H](CO)[C@@H](O)[C@@H]4O)cc3c2N2CCCN(C)CC2)cc1` (stereo partly drawn) [compound 193, 3-((4-butoxyphenyl)sulfonyl)-4-(4-methyl-1,4-diazepan-1-yl)-N-((4R,5S,6R)-2,4,5-trihydroxy-6-(hydroxymethyl)tetrahydro-2H-pyran-3-yl)quinoline-6-carboxamide] came in with a Cell death of 30%.

`CCCCOc1ccc(S(=O)(=O)c2cnc3ccc(C(=O)NCCO)cc3c2N2CCCN(C)CC2)cc1` [compound 200, 3-((4-butoxyphenyl)sulfonyl)-N-(2-hydroxyethyl)-4-(4-methyl-1,4-diazepan-1-yl)quinoline-6-carboxamide] registered a Cell death of 30%.

In the case of `CCCCOc1ccc(S(=O)(=O)c2cnc3ccc(C(=O)OCC)cc3c2N2CCN(c3ccc(F)cc3)CC2)cc1` [compound 213, ethyl 3-((4-butoxyphenyl)sulfonyl)-4-(4-(4-fluorophenyl)piperazin-1-yl)quinoline-6-carboxylate], the Cell death stood at 30%.

The same experiment, now with this note: Mus musculus, Endothelial cell, 48 h, read-out: Cell death.
As to `CCCCOc1ccc(S(=O)(=O)c2cnc3ccc(S(C)(=O)=O)cc3c2N2CCC(N3CCC(O)CC3)CC2)cc1` [compound 170, 1′-(3-((4-butoxyphenyl)sulfonyl)-6-(methylsulfonyl)quinolin-4-yl)-[1,4′-bipiperidin]-4-ol], the cytotoxicity at 20 µM amounted to 10%.

In the case of `CCOC(=O)c1ccc2ncc(S(=O)(=O)c3ccc(OC)cc3)c(N3CCC(N4CCN(C)CC4)CC3)c2c1` [compound 171, ethyl 3-((4-methoxyphenyl)sulfonyl)-4-(4-(4-methylpiperazin-1-yl)piperidin-1-yl)quinoline-6-carboxylate], the cytotoxicity at 40 µM was 40%.

For `CCCCOc1ccc(S(=O)(=O)c2cnc3ccc(C(=O)OCC)cc3c2N2CCC(N3CCN(C)CC3)CC2)cc1` [compound 172, ethyl 3-((4-butoxyphenyl)sulfonyl)-4-(4-(4-methylpiperazin-1-yl)piperidin-1-yl)quinoline-6-carboxylate], the cytotoxicity at 40 µM was found to be 100%.

Consider `CCOC(=O)c1ccc2ncc(S(=O)(=O)c3ccc(OC)cc3)c(N3CCC(N4CCCCCC4)CC3)c2c1` [compound 173, ethyl 4-(4-(azepan-1-yl)piperidin-1-yl)-3-((4-methoxyphenyl)sulfonyl)quinoline-6-carboxylate], for which the cytotoxicity at 40 µM worked out at 50%.

Turning to `CCOC(=O)c1ccc2ncc(S(=O)(=O)c3ccc(OC)cc3)c(N3CCC(N4CCCC(O)C4)CC3)c2c1` (stereo not shown) [compound 174, ethyl 4-(3-hydroxy-[1,4′-bipiperidin]-1′-yl)-3-((4-methoxyphenyl)sulfonyl)quinoline-6-carboxylate], the cytotoxicity at 40 µM was found to be 30%.

Turning to `CCOC(=O)c1ccc2ncc(S(=O)(=O)c3ccc(OC)cc3)c(N3CCC(N4CCC(CO)CC4)CC3)c2c1` [compound 175, ethyl 4-(4-(hydroxymethyl)-[1,4′-bipiperidin]-1′-yl)-3-((4-methoxyphenyl)sulfonyl)quinoline-6-carboxylate], the cytotoxicity at 40 µM was 30%.

For the compound `CCCCOc1ccc(S(=O)(=O)c2cnc3ccc(C(=O)OCC)cc3c2N2CCC(N3CCCCCC3)CC2)cc1` [compound 176, ethyl 4-(4-(azepan-1-yl)piperidin-1-yl)-3-((4-butoxyphenyl)sulfonyl)quinoline-6-carboxylate], the cytotoxicity at 40 µM is 100%.

For the compound `CCCCOc1ccc(S(=O)(=O)c2cnc3ccc(C(=O)OCC)cc3c2N2CCC(N3CCCC(O)C3)CC2)cc1` (stereo not shown) [compound 177, ethyl 3-((4-butoxyphenyl)sulfonyl)-4-(3-hydroxy-[1,4′-bipiperidin]-1′-yl)quinoline-6-carboxylate], the cytotoxicity at 40 µM is 100%.

Regarding `CCCCOc1ccc(S(=O)(=O)c2cnc3ccc(C(=O)OCC)cc3c2N2CCC(N3CCC(CO)CC3)CC2)cc1` [compound 178, ethyl 3-((4-butoxyphenyl)sulfonyl)-4-(4-(hydroxymethyl)-[1,4′-bipiperidin]-1′-yl)quinoline-6-carboxylate], the cytotoxicity at 40 µM was 100%.

For the compound `CCOC(=O)c1ccc2ncc(S(=O)(=O)c3ccc(OC)cc3)c(N3CCCN(CCN4CCCCC4)CC3)c2c1` [compound 179, ethyl 3-((4-methoxyphenyl)sulfonyl)-4-(4-(2-(piperidin-1-yl)ethyl)-1,4-diazepan-1-yl)quinoline-6-carboxylate], the cytotoxicity at 10 µM amounted to 60%.

As for `CCOC(=O)c1ccc2ncc(S(=O)(=O)c3ccc(OC)cc3)c(N3CCCN(CCN4CCCC4)CC3)c2c1` [compound 180, ethyl 3-((4-methoxyphenyl)sulfonyl)-4-(4-(2-(pyrrolidin-1-yl)ethyl)-1,4-diazepan-1-yl)quinoline-6-carboxylate], the cytotoxicity at 10 µM was 70%.

Turning to `CCCCOc1ccc(S(=O)(=O)c2cnc3ccc(C(=O)OCC)cc3c2N2CCCN(CCN3CCCCC3)CC2)cc1` [compound 181, ethyl 3-((4-butoxyphenyl)sulfonyl)-4-(4-(2-(piperidin-1-yl)ethyl)-1,4-diazepan-1-yl)quinoline-6-carboxylate], the cytotoxicity at 40 µM amounted to 100%.

In the case of `CCCCOc1ccc(S(=O)(=O)c2cnc3ccc(C(=O)OCC)cc3c2N2CCCN(CCN3CCCC3)CC2)cc1` [compound 182, ethyl 3-((4-butoxyphenyl)sulfonyl)-4-(4-(2-(pyrrolidin-1-yl)ethyl)-1,4-diazepan-1-yl)quinoline-6-carboxylate], the cytotoxicity at 40 µM came out at 100%.

Turning to `CCOC(=O)c1ccc2ncc(S(=O)(=O)c3ccc(OC)cc3)c(-n3cncn3)c2c1` [compound 183, ethyl 3-((4-methoxyphenyl)sulfonyl)-4-(1H-1,2,4-triazol-1-yl)quinoline-6-carboxylate], the cytotoxicity at 10 µM was determined as 100%.

Turning to `CCOC(=O)c1ccc2ncc(S(=O)(=O)c3ccc(OC)cc3)c(-n3ccnn3)c2c1` [compound 184, ethyl 3-((4-methoxyphenyl)sulfonyl)-4-(1H-1,2,3-triazol-1-yl)quinoline-6-carboxylate], the cytotoxicity at 10 µM was 5%.

On to `CCOC(=O)c1ccc2ncc(S(=O)(=O)c3ccc(OC)cc3)c(-n3cnnn3)c2c1` [compound 185, ethyl 3-((4-methoxyphenyl)sulfonyl)-4-(1H-tetrazol-1-yl)quinoline-6-carboxylate], for which the cytotoxicity at 10 µM was 30%.

For the compound `CCCCOc1ccc(S(=O)(=O)c2cnc3ccc(C(=O)OCC)cc3c2-n2cnnn2)cc1` [compound 186, ethyl 3-((4-butoxyphenyl)sulfonyl)-4-(1H-tetrazol-1-yl)quinoline-6-carboxylate], the cytotoxicity at 10 µM came out at 90%.

In the case of `CCCCOc1ccc(S(=O)(=O)c2cnc3ccc(OC(F)(F)F)cc3c2N2CCSCC2)cc1` [compound 187, 4-(3-((4-butoxyphenyl)sulfonyl)-6-(trifluoromethoxy)quinolin-4-yl)thiomorpholine], the cytotoxicity at 40 µM was 30%.

On to `CCCCOc1ccc(S(=O)(=O)c2cnc3ccc(C(=O)OCC)cc3c2N2CCS(=O)(=O)CC2)cc1` [compound 196, ethyl 3-((4-butoxyphenyl)sulfonyl)-4-(1,1-dioxidothiomorpholino)quinoline-6-carboxylate], for which the cytotoxicity at 40 µM was determined as 30%.

For the compound `CCCCOc1ccc(S(=O)(=O)c2cnc3ccc(OC(F)(F)F)cc3c2N2CC[S+]([O-])CC2)cc1` [compound 197, 4-(3-((4-butoxyphenyl)sulfonyl)-6-(trifluoromethoxy)quinolin-4-yl)thiomorpholine 1-oxide], the cytotoxicity at 40 µM is 20%.

`CCCCOc1ccc(S(=O)(=O)c2cnc3ccc(OC(F)(F)F)cc3c2N2CCS(=O)(=O)CC2)cc1` [compound 198, 4-(3-((4-butoxyphenyl)sulfonyl)-6-(trifluoromethoxy)quinolin-4-yl)thiomorpholine 1,1-dioxide]: the cytotoxicity at 40 µM was 30%.

In the case of `CCCCOc1ccc(S(=O)(=O)c2cnc3ccc(C(=O)N(CC)CC)cc3c2N2CCCN(C)CC2)cc1` [compound 199, 3-((4-butoxyphenyl)sulfonyl)-N,N-diethyl-4-(4-methyl-1,4-diazepan-1-yl)quinoline-6-carboxamide], the cytotoxicity at 40 µM stood at 30%.
